{"source": "paper PMC6572294", "about": "“Repurposing of FDA-Approved NSAIDs for DPP-4 Inhibition as an Alternative for Diabetes Mellitus Treatment: Computational and in Vitro Study” (Pharmaceutics, 2019)", "target": "T1, human dipeptidyl peptidase-4 (DPP-4) (Homo sapiens, UniProt P27487)", "T1 construct": "gene DPP4", "T1 sequence (P27487 39-766)": "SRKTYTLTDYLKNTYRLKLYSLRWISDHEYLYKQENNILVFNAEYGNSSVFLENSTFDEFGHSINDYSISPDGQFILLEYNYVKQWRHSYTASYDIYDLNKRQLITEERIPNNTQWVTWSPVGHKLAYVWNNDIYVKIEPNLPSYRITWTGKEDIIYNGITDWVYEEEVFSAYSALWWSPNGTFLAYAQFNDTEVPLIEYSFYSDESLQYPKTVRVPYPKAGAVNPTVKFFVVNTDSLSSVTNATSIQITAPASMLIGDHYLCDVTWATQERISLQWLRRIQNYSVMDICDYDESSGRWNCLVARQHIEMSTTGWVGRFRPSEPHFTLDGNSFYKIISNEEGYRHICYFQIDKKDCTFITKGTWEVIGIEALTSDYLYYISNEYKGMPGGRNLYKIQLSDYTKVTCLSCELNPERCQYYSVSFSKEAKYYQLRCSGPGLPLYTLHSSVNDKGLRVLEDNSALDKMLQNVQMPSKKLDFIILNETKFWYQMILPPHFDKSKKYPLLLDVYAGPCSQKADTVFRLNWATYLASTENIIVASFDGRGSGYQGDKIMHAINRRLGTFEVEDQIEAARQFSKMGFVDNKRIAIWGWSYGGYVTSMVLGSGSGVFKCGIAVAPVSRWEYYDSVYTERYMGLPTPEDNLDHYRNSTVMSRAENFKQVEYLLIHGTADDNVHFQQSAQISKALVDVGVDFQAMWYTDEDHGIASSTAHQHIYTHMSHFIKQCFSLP", "assay": "fluorogenic Gly-Pro cleavage assay, human DPP-4 inhibitor screening kit (Sigma-Aldrich)", "assay_type": "biochemical", "data": [{"molecule": "CN1C(C(=O)Nc2ccccn2)=C(O)c2ccccc2S1(=O)=O", "note": "[piroxicam]", "values": [{"measurement": "IC50", "value": 9.9, "unit": "µM"}]}]}
